Measured values taken from publication PMC7700685 (International Journal of Molecular Sciences, 2020).
Where “and” joins values, the source holds several entries; their conditions need not be identical. Equal entries are not always repeated. Entries after “also recorded” stand apart in the source; their conditions may differ. Where two headings read alike, the source gives them in different places. Blank lines part the entries; values can stand above or below the compound they belong to.

Experiments:
[1] = tested on: U251MG cells; experiment: MTT cell viability assay; details: 72 h
Method: (§2) MTT assays were used to test cell toxicity of compounds. […] After incubation with MTT for 4 h at 37 °C, the culture medium was aspirated and 200 µL DMSO was added to each well to dissolve the formazan crystals, then the absorbance was measured at 540 nm using a Victor 3 Microplate reader (PerkinElmer, Waltham, MA, USA).

[2] = molecular target: T1, MTH1 (Homo sapiens, UniProt P36639); experiment: MTH1 enzymatic inhibition assay (PPiLight inorganic pyrophosphate bioluminescent assay); format: biochemical; details: substrate dGTP 100 uM, recombinant MTH1 0.5 nM; for IC50: read-out: IC50 inhibiting MTH1 hydrolase activity
Method: (§1) The enzymatic hydrolysis of dGTP by purified human recombinant MTH1 to form dGMP and pyrophosphate was applied for screening purposes using a PPiLightTM inorganic pyrophosphate bioluminescent assay—according to published procedures. After shaking and color development, the plates were analyzed in a Victor 3 Microplate reader (PerkinElmer, Waltham, MA, USA) for luminescence. The inhibition assays were conducted using a series of dilutions of standard compounds and new MTH1 inhibitors. The IC50 values were determined by fitting a dose-response curve to the data points using nonlinear regression.

[3] = molecular target: T1, MTH1; experiment: Competitive binding against [3H]TH287 in live U251MG cells; set-up: endogenous in cells; host or cells: U251MG glioblastoma cells
Method: The final concentration of the radioligand in each assay was 4 nM. […] After the reaction was completed, the cells were washed once with ice-cold PBS and the bound radioactivity was counted and analyzed as described above. Nonspecific binding was determined from cells treated with 10 µM TH086. Raclopride, a well-reported selective antagonist for dopamine D₂ receptors, was also used to validate the assay.
The values for Bns and B0 were constrained using experimentally derived values.
Data from competitive radioligand binding studies were transformed to determine the pseudo-Hill coefficient, n’H, defined as:(4) logBs/B0−Bs=n′HlogI−n′HlogIC50
n’H, which is the negative of the Hill slope, was readily determined from the plot of logBs/B0−Bs versus logI .

[4] = molecular target: T1, MTH1; experiment: Competitive inhibition (kinetics) assay of MTH1 hydrolase; format: biochemical
Method: as §1

[5] = MicroPET imaging of normal mice with [11C]TH287; format: in vivo
Method: The Washington University Animal Studies Committee approved all procedures used for the mouse experiments described in the present study under ACS# 20,170,165 (approved on 9/1/2017). Overall care of the animals was consistent with The Guide for the Care and Use of Laboratory Animals from the National Research Council and the USDA Animal Care Resource Guide. Four male athymic nude mice ([…], 8 weeks old), purchased from Charles River Laboratories (Wilmington, MA, USA), were included for the preliminary microPET imaging evaluation of MTH1 in vivo. […] The imaging sessions were 1 h dynamic scans using the MicroPET® Focus 220 and Inveon scanners (Siemens Medical Solutions USA Molecular Imaging, Knoxville, TN, USA). Acquired list mode data were histogrammed into a 3D set of sinograms and binned to the following time frames: 5 × 60 s, 5 × 2 min, and 9 × 5 min. Sinogram data was then processed using a filter back-projection algorithm with attenuation and scatter corrections. […] The software Acquisition Sinogram Image PROcessing using IDL’s Virtual Machine^TM (ASIPro VM^TM) (Siemens Medical Solutions USA Molecular Imaging, Knoxville, TN, USA) was used to draw ROI and obtain the radioactivity uptake (nCi/c.c.) curve over the time course of the scan, and the uptake data were further normalized by the injected radioactivity dose to get %I.D./cc.

[6] = tested on: beta-tubulin; details: cited from earlier work
[7] = human; N-dealkylation of the aminomethyl substituent, major metabolite TH586; no reference given; cited from earlier work
[8] = mouse; N-dealkylation of the aminomethyl substituent, major metabolite TH586; no reference given; cited from earlier work
[9] = in vitro; details: human
Method: as §2

[10] = molecular target: T1, MTH1; details: 'it has been reported', no reference given; cited from earlier work

SMILES: C[C@H](Oc1cc(-c2cnn(C3CCNCC3)c2)cnc1N)c1c(Cl)ccc(F)c1Cl [(S)-crizotinib]
cell viability compared with vehicle control ([1]; 10 µM): 92.95% | cell viability compared with vehicle control ([1]; 30 µM): 0.14%

IC50 inhibiting MTH1 hydrolase activity [2]: no inhibition | IC50 [2]: > 10000 nM | Ki (competitive binding) ([3]; U251MG cells, 4 nM [3H]TH287, Cheng-Prusoff): No binding was detected | Ki ([3]; read-out: Ki (competitive binding)): > 10000 nM
SMILES: CCN1CCC[C@H]1CNC(=O)c1c(O)c(Cl)cc(Cl)c1OC [Raclopride]

SMILES: CNc1cc(-c2cccc(Cl)c2Cl)nc(N)n1 [TH287, 6-(2,3-Dichlorophenyl)-N4-methylpyrimidine-2,4-diamine]
IC50 [2]: 2.2 nM | Kmapp of MTH1 ([4]; 2.5 nM TH287 present (Km 305 µM without)): 892 µM | Ki ([4]; MTH1 0.5 nM, dGTP 0 to 5000 uM, read-out: Ki from kinetics assays): ~1.3 nM and 1.3 nM | blood-brain barrier penetration ([5]; microPET): penetrates the blood-brain barrier of mice with a fast clearance | concentration inhibiting in vitro beta-tubulin polymerization [6]: higher than 30 µM | metabolism in liver microsomes [7]: rapidly metabolized | metabolism in liver microsomes [8]: rapidly metabolized | viability at 72 h, 30 µM [9]: 88.9% | Ki [3]: 3.04 ± 0.14 nM | pseudo-Hill coefficient n'H ([3]; U251MG cells): 0.88 and 0.88 ± 0.06

SMILES: Nc1cc(-c2cccc(Cl)c2Cl)nc(N)n1 [TH586]
IC50 [10]: 77 nM

SMILES: Nc1nc(NC2CC2)cc(-c2cccc(Cl)c2Cl)n1 [TH588]
concentration inhibiting in vitro beta-tubulin polymerization [6]: higher than 30 µM

SMILES: [11CH3]Nc1cc(-c2cccc(Cl)c2Cl)nc(N)n1 [[^11C]TH287]
uptake and clearance from brain, heart and kidney ([5]; ~0.4 mCi via tail vein, 1 h dynamic scan): gets into the brain with rapid clearance from the brain, kidney, and heart; also recorded: high initial uptake and fast clearance; also recorded: rapid brain uptake and fast clearance
